Data taken from ChEMBL document CHEMBL1143065, “Discovery and characterization of 4'-(2-furyl)-N-pyridin-3-yl-4,5'-bipyrimidin-2'-amine (LAS38096), a potent, selective, and efficacious A2B adenosine receptor antagonist” (J Med Chem, 2007).

Tests used:
Adenosine receptor A2a [1] = molecular target: T1, Adenosine receptor A2a (Homo sapiens, UniProt P29274); experiment: Displacement of [3H]ZM-241385 from human A2A receptor expressed in HeLa cells; assay type: cell-based
Adenosine receptor A3 = molecular target: T2, Adenosine receptor A3 (Homo sapiens, UniProt P0DMS8); experiment: Displacement of […] from human A3 receptor expressed in HeLa cells; assay type: cell-based
T2 sequence (P0DMS8 whole entry): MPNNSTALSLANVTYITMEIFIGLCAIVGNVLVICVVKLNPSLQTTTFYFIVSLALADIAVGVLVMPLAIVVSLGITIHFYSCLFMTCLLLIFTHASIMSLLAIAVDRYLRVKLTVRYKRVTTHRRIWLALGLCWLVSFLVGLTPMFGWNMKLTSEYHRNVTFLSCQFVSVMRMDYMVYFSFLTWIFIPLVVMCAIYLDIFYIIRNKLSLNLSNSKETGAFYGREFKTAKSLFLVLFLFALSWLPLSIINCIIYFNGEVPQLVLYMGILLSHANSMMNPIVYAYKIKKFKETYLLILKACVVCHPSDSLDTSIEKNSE

Adenosine receptor A2a [2] = molecular target: T1, Adenosine receptor A2a; experiment: Displacement of [3H]ZM-241385 from human A2A receptor expressed in HeLa cells at 2500 nM; assay type: cell-based
[3] = molecular target: T3, Adenosine receptor A1 (Homo sapiens) (UniProt P30542); experiment: Displacement of [3H]DPCPX from human A1 receptor expressed in CHO cells at 10000 nM; assay type: cell-based
T3 sequence (whole entry): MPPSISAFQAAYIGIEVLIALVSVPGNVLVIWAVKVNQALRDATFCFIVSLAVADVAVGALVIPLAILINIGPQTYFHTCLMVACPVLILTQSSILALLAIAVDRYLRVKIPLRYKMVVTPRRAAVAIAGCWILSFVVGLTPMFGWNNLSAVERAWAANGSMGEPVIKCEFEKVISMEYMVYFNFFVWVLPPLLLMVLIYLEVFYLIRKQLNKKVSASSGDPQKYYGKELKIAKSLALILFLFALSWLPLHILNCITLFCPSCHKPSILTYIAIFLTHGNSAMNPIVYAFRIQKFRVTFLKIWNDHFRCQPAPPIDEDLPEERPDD

Adenosine receptor A1 = molecular target: T4, Adenosine receptor A1 (Homo sapiens, UniProt P30542); experiment: Displacement of [3H]DPCPX from human A1 receptor expressed in CHO cells; assay type: cell-based
T4 sequence (P30542 whole entry): T3 sequence (whole entry)

Adenosine receptor A2b [4] = molecular target: T5, Adenosine receptor A2b (Homo sapiens, UniProt P29275); experiment: Displacement of [3H]DPCPX from human A2B receptor expressed in HEK293 cells; assay type: cell-based
T5 sequence (P29275 whole entry): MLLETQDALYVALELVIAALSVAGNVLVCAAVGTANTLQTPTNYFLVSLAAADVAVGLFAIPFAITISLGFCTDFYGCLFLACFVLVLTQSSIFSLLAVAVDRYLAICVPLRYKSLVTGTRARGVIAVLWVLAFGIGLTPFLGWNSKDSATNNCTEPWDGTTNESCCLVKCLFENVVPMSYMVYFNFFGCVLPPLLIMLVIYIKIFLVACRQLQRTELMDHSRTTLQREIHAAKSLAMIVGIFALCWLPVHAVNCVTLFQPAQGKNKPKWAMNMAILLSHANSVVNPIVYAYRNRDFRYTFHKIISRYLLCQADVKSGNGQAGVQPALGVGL

[5] = molecular target: T6, Adenosine receptor A3 (Homo sapiens) (UniProt P0DMS8); experiment: Displacement of […] from human A3 receptor expressed in HeLa cells at 1000 nM; assay type: cell-based
T6 sequence (whole entry): T2 sequence (P0DMS8 whole entry)

[6] = Bioavailability in Beagle dog at 10 mg/kg, po; assay type: ADME, organism-based, Canis lupus familiaris; conditions: in vivo
[7] = AUC in Wistar rat at 10 mg/kg, po; assay type: ADME, organism-based; parameters: dose 10 mg/kg, route oral; conditions: plasma
[8] = Volume of distribution at steady state in Beagle dog at 1 mg/kg, iv; assay type: ADME, organism-based, Canis lupus familiaris; parameters: dose 1 mg/kg, route intravenous; conditions: in vivo, read-out: Vdss
[9] = AUC in Swiss mouse at 10 mg/kg, po; assay type: ADME, organism-based; parameters: dose 10 mg/kg, route oral; conditions: plasma
[10] = Cmax in Wistar rat at 10 mg/kg, po; assay type: ADME, organism-based; parameters: dose 10 mg/kg, route oral; conditions: in vivo
[11] = molecular target: T7, Adenosine receptors; A2b & A3 (Homo sapiens, UniProt P29275+P0DMS8); experiment: Inhibition of NECA-induced IL6 production in human fibroblast after 24 hrs by ELISA; assay type: functional
T7 sequence (P29275 whole entry): T5 sequence (P29275 whole entry)
T7 sequence (P0DMS8 whole entry): T2 sequence (P0DMS8 whole entry)

[12] = Tmax in Swiss mouse at 10 mg/kg, po; assay type: ADME, organism-based; parameters: dose 10 mg/kg, route oral; conditions: in vivo
[13] = Mean residence time in Wistar rat at 1 mg/kg, iv; assay type: ADME, organism-based; parameters: dose 1 mg/kg, route intravenous; conditions: in vivo
[14] = AUC in Beagle dog at 10 mg/kg, po; assay type: ADME, organism-based, Canis lupus familiaris; parameters: dose 10 mg/kg, route oral; conditions: plasma
[15] = Clearance in Beagle dog at 1 mg/kg, iv; assay type: ADME, organism-based, Canis lupus familiaris; parameters: dose 1 mg/kg, route intravenous; conditions: in vivo
[16] = Tmax in Beagle dog at 10 mg/kg, po; assay type: ADME, organism-based, Canis lupus familiaris; parameters: dose 10 mg/kg, route oral; conditions: in vivo
[17] = Cmax in Swiss mouse at 10 mg/kg, po; assay type: ADME, organism-based; parameters: dose 10 mg/kg, route oral; conditions: in vivo
[18] = Mean residence time in Beagle dog at 10 mg/kg, po; assay type: ADME, organism-based, Canis lupus familiaris; parameters: dose 10 mg/kg, route oral; conditions: in vivo
[19] = Volume of distribution at steady state in Wistar rat at 1 mg/kg, iv; assay type: ADME, organism-based; parameters: dose 1 mg/kg, route intravenous; conditions: in vivo, read-out: Vdss
[20] = Mean residence time in Beagle dog at 1 mg/kg, iv; assay type: ADME, organism-based, Canis lupus familiaris; parameters: dose 1 mg/kg, route intravenous; conditions: in vivo
[21] = Cmax in Beagle dog at 10 mg/kg, po; assay type: ADME, organism-based, Canis lupus familiaris; parameters: dose 10 mg/kg, route oral; conditions: in vivo
Adenosine receptor A2b [22] = molecular target: T5, Adenosine receptor A2b; experiment: Activity at human A2B receptor expressed in HEK293 cells assessed as inhibition of NECA-induced intracellular cAMP levels by ELISA; assay type: functional, cell-based
[23] = Half life in Beagle dog at 1 mg/kg, iv; assay type: ADME, organism-based, Canis lupus familiaris; parameters: dose 1 mg/kg, route intravenous; conditions: in vivo
[24] = Half life in Wistar rat at 1 mg/kg, iv; assay type: ADME, organism-based; parameters: dose 1 mg/kg, route intravenous; conditions: in vivo
[25] = Mean residence time in Wistar rat at 10 mg/kg, po; assay type: ADME, organism-based; parameters: dose 10 mg/kg, route oral; conditions: in vivo
[26] = Bioavailability in Wistar rat at 10 mg/kg, po; assay type: ADME, organism-based; conditions: in vivo
[27] = Tmax in Wistar rat at 10 mg/kg, po; assay type: ADME, organism-based; parameters: dose 10 mg/kg, route oral; conditions: in vivo
Adenosine receptor A2b [28] = molecular target: T8, Adenosine receptor A2b (Mus musculus, UniProt Q60614); experiment: Activity at mouse A2B receptor expressed in CHO cells assessed as inhibition of NECA-induced intracellular cAMP levels by ELISA; assay type: functional, cell-based
T8 sequence (Q60614 whole entry): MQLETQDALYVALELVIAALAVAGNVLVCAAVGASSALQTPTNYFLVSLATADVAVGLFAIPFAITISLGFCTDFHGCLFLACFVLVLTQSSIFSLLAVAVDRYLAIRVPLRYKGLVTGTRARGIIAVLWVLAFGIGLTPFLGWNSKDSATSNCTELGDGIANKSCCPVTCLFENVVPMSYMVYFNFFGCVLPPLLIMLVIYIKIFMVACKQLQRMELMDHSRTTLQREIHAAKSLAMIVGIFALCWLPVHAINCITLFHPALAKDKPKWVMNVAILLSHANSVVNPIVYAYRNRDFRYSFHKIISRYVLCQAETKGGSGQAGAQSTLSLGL

Rattus norvegicus = experiment: Clearance in Wistar rat at 1 mg/kg, iv; assay type: ADME, organism-based; parameters: dose 1 mg/kg, route intravenous; conditions: in vivo
[29] = molecular target: T3, Adenosine receptor A1 (Homo sapiens); experiment: Displacement of [3H]DPCPX from human A1 receptor expressed in CHO cells at 1000 nM; assay type: cell-based
Adenosine receptor A2b [30] = molecular target: T8, Adenosine receptor A2b; experiment: Inhibition of NECA-induced IL6 production in Swiss mouse fibroblasts after 24 hrs by ELISA; assay type: functional
[31] = molecular target: Adenosine receptor A3 (Mus musculus) (UniProt Q61618); conditions: CHO, 10 uM
Sequence of Adenosine receptor A3 (Mus musculus) (Q61618 whole entry, looked up): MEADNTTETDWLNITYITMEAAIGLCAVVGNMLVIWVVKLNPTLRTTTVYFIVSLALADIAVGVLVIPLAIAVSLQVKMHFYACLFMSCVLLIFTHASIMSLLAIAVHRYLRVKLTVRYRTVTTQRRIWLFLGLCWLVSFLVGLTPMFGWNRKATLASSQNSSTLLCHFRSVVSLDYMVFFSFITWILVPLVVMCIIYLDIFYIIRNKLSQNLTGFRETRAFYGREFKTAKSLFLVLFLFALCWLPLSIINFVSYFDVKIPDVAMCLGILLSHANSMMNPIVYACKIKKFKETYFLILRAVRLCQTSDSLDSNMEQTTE
Description: Activity at mouse A3 receptor expressed in CHO cells assessed as inhibition of NECA-induced intracellular cAMP levels at 10 uM by ELISA

T1 sequence (P29274 whole entry): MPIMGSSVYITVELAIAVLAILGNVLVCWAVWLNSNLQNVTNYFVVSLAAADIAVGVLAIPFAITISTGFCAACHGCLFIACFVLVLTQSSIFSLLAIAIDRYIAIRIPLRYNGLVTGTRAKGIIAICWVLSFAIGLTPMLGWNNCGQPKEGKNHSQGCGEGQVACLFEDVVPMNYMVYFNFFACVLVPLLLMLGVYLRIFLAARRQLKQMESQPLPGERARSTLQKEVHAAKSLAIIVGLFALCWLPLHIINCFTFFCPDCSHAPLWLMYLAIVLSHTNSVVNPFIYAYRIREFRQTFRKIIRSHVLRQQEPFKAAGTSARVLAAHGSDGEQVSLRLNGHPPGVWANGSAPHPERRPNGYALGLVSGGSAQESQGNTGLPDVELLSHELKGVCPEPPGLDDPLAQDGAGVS

COc1ncc(Nc2ncc(-c3ccncn3)c(-c3ccco3)n2)cn1
Ki (Adenosine receptor A2a [1]): > 2500 nM | Ki (Adenosine receptor A3): > 1000 nM | inhibition (Adenosine receptor A2a [2]): 25% | inhibition [3]: 45% | Ki (Adenosine receptor A1): > 10000 nM | Ki (Adenosine receptor A2b [4]): 39 nM | inhibition [5]: 32%

c1coc(-c2nc(Nc3cnccn3)ncc2-c2ccncn2)c1
Ki (Adenosine receptor A2a [1]): > 2500 nM | Ki (Adenosine receptor A3): > 1000 nM | inhibition (Adenosine receptor A2a [2]): 21% | inhibition [3]: 30% | Ki (Adenosine receptor A1): > 10000 nM | Ki (Adenosine receptor A2b [4]): 116 nM | inhibition [5]: 18%

O=c1ccc(Nc2ncc(-c3ccncn3)c(-c3ccco3)n2)cn1CC1CC1
Ki (Adenosine receptor A2a [1]): > 2500 nM | Ki (Adenosine receptor A3): > 1000 nM | inhibition (Adenosine receptor A2a [2]): 38.5% | inhibition [3]: 28% | Ki (Adenosine receptor A1): > 10000 nM | Ki (Adenosine receptor A2b [4]): 119 nM | inhibition [5]: 29%

Cn1cc(Nc2ncc(-c3ccncn3)c(-c3ccco3)n2)ccc1=O
Ki (Adenosine receptor A2a [1]): > 2500 nM | Ki (Adenosine receptor A3): > 1000 nM | inhibition (Adenosine receptor A2a [2]): 20% | inhibition [3]: 17% | Ki (Adenosine receptor A1): > 10000 nM | Ki (Adenosine receptor A2b [4]): 28 nM | inhibition [5]: 28%

[O-][n+]1cccc(Nc2ncc(-c3ccncn3)c(-c3ccco3)n2)c1
Ki (Adenosine receptor A2a [1]): > 2500 nM | Ki (Adenosine receptor A3): > 1000 nM | inhibition (Adenosine receptor A2a [2]): 24% | inhibition [3]: 38% | Ki (Adenosine receptor A1): > 10000 nM | Ki (Adenosine receptor A2b [4]): 34 nM | inhibition [5]: 35%

c1coc(-c2nc(Nc3cncnc3)ncc2-c2ccncn2)c1
Ki (Adenosine receptor A2a [1]): > 2500 nM | Ki (Adenosine receptor A3): > 1000 nM | inhibition (Adenosine receptor A2a [2]): 29% | IC50 (Adenosine receptor A1): 45 nM | Ki (Adenosine receptor A1): > 10000 nM | Ki (Adenosine receptor A2b [4]): 24 nM | inhibition [5]: 42%

O=c1ccc(Nc2ncc(-c3ccncn3)c(-c3ccco3)n2)c[nH]1
Ki (Adenosine receptor A2a [1]): > 2500 nM | Ki (Adenosine receptor A3): > 1000 nM | inhibition (Adenosine receptor A2a [2]): 25% | inhibition [3]: 31% | Ki (Adenosine receptor A1): > 10000 nM | Ki (Adenosine receptor A2b [4]): 16 nM | inhibition [5]: 15%

c1cncc(Nc2ncc(-c3ccncn3)c(-c3ccco3)n2)c1
bioavailability [6]: 81% | AUC [7]: 16 µM·h | Vd [8]: 1.1 L/kg | AUC [9]: 4 µM·h | Cmax [10]: 11 µM | IC50 [11]: 340 nM | Tmax [12]: 18 min | MRT [13]: 18 min | AUC [14]: 15 µM·h | Ki (Adenosine receptor A2a [1]): > 2500 nM | clearance [15]: 28 mL/min/kg | Tmax [16]: 78 min | Ki (Adenosine receptor A3): > 1000 nM | Cmax [17]: 13 µM | MRT [18]: 108 min | Vd [19]: 0.5 L/kg | inhibition (Adenosine receptor A2a [2]): 40% | MRT [20]: 42 min | Cmax [21]: 6 µM | IC50 (Adenosine receptor A2b [22]): 321 nM | half-life [23]: 48 min | Ki (Adenosine receptor A1): > 1000 nM | half-life [24]: 12 min | MRT [25]: 84 min | bioavailability [26]: 75% | Ki (Adenosine receptor A2b [4]): 17 nM | Tmax [27]: 18 min | IC50 (Adenosine receptor A2b [28]): 349 nM | clearance (Rattus norvegicus): 25 mL/min/kg | inhibition [29]: 14% | IC50 (Adenosine receptor A2b [30]): 640 nM | inhibition [31]: 5% | inhibition [5]: 36%

COc1ccc(Nc2ncc(-c3ccncn3)c(-c3ccco3)n2)cn1
Ki (Adenosine receptor A2a [1]): > 2500 nM | Ki (Adenosine receptor A3): > 1000 nM | inhibition (Adenosine receptor A2a [2]): 21% | inhibition [3]: 25% | Ki (Adenosine receptor A1): > 10000 nM | Ki (Adenosine receptor A2b [4]): 115 nM | inhibition [5]: 29%

N#Cc1cncc(Nc2ncc(-c3ccncn3)c(-c3ccco3)n2)c1
Ki (Adenosine receptor A2a [1]): > 2500 nM | Ki (Adenosine receptor A3): > 1000 nM | inhibition (Adenosine receptor A2a [2]): 37% | inhibition [3]: 22% | Ki (Adenosine receptor A1): > 10000 nM | Ki (Adenosine receptor A2b [4]): 69 nM | inhibition [5]: 24%
